Data: PubChem BioAssay AID1508591

Settings: rat; liver microsomes; pH 7.4; 15.0 min; 1.0 µM

Compound: O=C1Nc2ccc(C(=O)c3ccco3)cc2/C1=C/c1cc(Cl)c(O)c(Cl)c1
- half-life: 7.7 min

Compound: COc1cccc(CNc2ccc(S(=O)(=O)Nc3nccs3)cc2)c1
- half-life: 15 min

Compound: CC(C)c1nc(CN(C)C(=O)N[C@H](C(=O)N[C@@H](Cc2ccccc2)C[C@H](O)[C@H](Cc2ccccc2)NC(=O)OCc2cncs2)C(C)C)cs1
- half-life: 22.1 min

Compound: CCOc1ccc(CCNC(=O)c2cc3sccc3n2CCN(C)C)cc1OCC
- half-life: 1.6 min

Compound: Cn1nnnc1Sc1ncnc2scc(-c3ccccc3F)c12
- half-life: 5.28 min

Compound: COc1ccc(CCNC(=O)c2cc3c(=O)n4ccccc4nc3n(CCCN3CCOCC3)c2=N)cc1
- half-life: 8.26 min

Compound: CN(Cc1cccs1)c1ncnc2ccc(-c3ccc4c(c3)OCO4)cc12
- half-life: 1.44 min

Compound: CN(C)c1ccc(-c2cc[nH]c(=O)c2N)cc1
- half-life: > 30 min

Compound: CS(=O)(=O)c1ccc(-c2nnc(/C=C/c3nnc(-c4ccc(C#N)cc4)o3)n2-c2ccccc2Cl)nc1
- half-life: > 30 min

Compound: Cc1ccc(-c2cc(C(=O)Nc3ccc(-n4cccn4)cc3)c3ccccc3n2)cc1C
- half-life: 9.1 min

Compound: CC(C)c1cc(C(=O)N2CC[C@@H](NC(=O)C3CC3)C2)n[nH]1
- half-life: > 30 min

Compound: COC(=O)c1ccc(Nc2nc(-c3ccncc3)nc3ccccc23)cc1OC
- half-life: 9.5 min

Compound: CCOc1ccc(CCNC(=O)c2cc3sccc3n2CCN2CCOCC2)cc1OCC
- half-life: 1.6 min

Compound: CN(C(=O)CNC(=O)c1cc(F)ccc1OCC(=O)Nc1ccc(I)cc1)c1ccc(F)cc1
- half-life: 1.74 min

Compound: Cc1ccc(S(=O)(=O)Nc2cnccc2C(=O)Nc2nc(-c3cccc(C)c3)cs2)cc1
- half-life: 5.8 min

Compound: COCCOc1cnc2ccn([C@H](C)c3nnc4c(F)cc(-c5cnn(C)c5)cn34)c(=O)c2c1
- half-life: > 30 min

Compound: Cc1ccc(-c2nnc(Nc3ccc(Br)cc3)c3ccccc23)cc1S(=O)(=O)N1CCN(C)CC1
- half-life: 1.31 min

Compound: Fc1ccc(N2CCCN(CC3[C@H]4CNC[C@@H]34)CC2)cc1 (stereo partly drawn)
- half-life: > 30 min

Compound: CN(C(=O)CSc1nc2c(c(=O)[nH]1)CCCC2)c1ccccc1
- half-life: 13 min

Compound: CCOc1ccc(CCNC(=O)c2cc3sccc3n2Cc2cccc(C)c2)cc1OCC
- half-life: 1.8 min

Compound: O=C(/C=C/c1cn(CC(O)CN2CCCCCC2)c2ccccc12)c1ccc(Br)cc1 (stereo not drawn)
- half-life: 24.2 min

Compound: Cc1ccc(S(=O)(=O)Nc2cnccc2C(=O)Nc2nc(-c3nc4ccccc4s3)cs2)cc1
- half-life: 24 min

Compound: Fc1ccc(Nc2nc(-c3ccnc4ccccc34)nc3ccccc23)cc1F
- half-life: 27 min

Compound: COc1ccc(NC(=O)c2c(C)cccc2C)cc1[S+](=O)([O-])N(C)C
- half-life: > 30 min

Compound: COc1ccc(-c2cnc(N3CCC(C(N)=O)CC3)s2)cc1OC
- half-life: > 30 min

Compound: Cc1c(NC2=C(Cl)C(=O)N(c3ccccc3)C2=O)c(=O)n(-c2ccccc2)n1C
- half-life: 23 min

Compound: O=C(NCCCc1ccccc1)c1cccc(-c2cc(O)c3ncccc3c2)c1
- half-life: 1.65 min

Compound: O=C1CCCCc2cc(O)c(O)cc21
- half-life: > 30 min

Compound: Cc1ccc(C(=O)Nc2nc3nc(C)cc(=O)n3[nH]2)cc1
- half-life: > 30 min

Compound: Cc1ccnc(NC(=S)N2CCN(c3cc(Cl)cc(Cl)c3)CC2)c1
- half-life: > 30 min

Compound: CCCCC1CCC(C(=O)Nc2ccc(S(=O)(=O)Nc3nccs3)cc2)CC1 (stereo not drawn)
- half-life: > 30 min

Compound: Cc1cc(C)nc(NC(=S)N2CCN(c3cccc(C(F)(F)F)n3)CC2)c1
- half-life: 28 min

Compound: CC(=O)c1c(C)[nH]c(C(=O)Nc2cccc([S+](=O)([O-])N3CC[C@@H](F)C3)c2)c1C
- half-life: 3.2 min

Compound: CCOC(=O)CCNc1cc(N2CCc3ccccc3CC2)nc(-c2cccnc2)n1
- half-life: 2.31 min

Compound: CCN(c1cc(C#CCN2CCOCC2)cc(C(=O)NCc2c(C)cc(C)[nH]c2=O)c1C)C1CCC(N(C)CCOC)CC1 (stereo not drawn)
- half-life: > 30 min

Compound: COc1ccc(-c2ccc3nc(-c4ccccc4C)oc3c2)c(OC)c1OC
- half-life: > 30 min

Compound: Cc1ccc(S(=O)(=O)Nc2ccccc2N2CCCCC2)cc1
- half-life: 1.69 min

Compound: Cc1ccc(C(=O)Nc2nc(-c3ccccn3)cs2)cc1S(=O)(=O)N1CCOCC1
- half-life: 4.16 min

Compound: COc1ccc(C(=O)N2CCCC(c3nn(-c4ccc(OC)cc4)c(=O)[nH]3)C2)cc1 (stereo not drawn)
- half-life: > 30 min

Compound: O=C(NCc1cccc(C(F)(F)F)c1)c1ccc(CN2CCCCC2)cc1
- half-life: 15 min

Compound: CC(C)(C)c1ccc(OCc2nn3c(-c4ccncc4)nnc3s2)cc1
- half-life: 19.6 min

Compound: Fc1ccc(-c2ccc(Nc3nc(-c4ccncc4)nc4ccccc34)cc2F)c(Cl)c1
- half-life: 25 min

Compound: O=C(c1ccc(-c2ncc3cnc(-c4ccccc4)cn23)cc1)N1CCS(=O)(=O)CC1
- half-life: > 30 min

Compound: Cc1ccc(S(=O)(=O)Nc2ccccc2Nc2nc(-c3ccccc3)cs2)cc1
- half-life: 1.7 min

Compound: Fc1ccc(F)c(Nc2nc(-c3ccncc3)nc3ccccc23)c1
- half-life: 10 min

Compound: CC(Nc1ncnc2c1cnn2-c1cccc(Cl)c1)c1ccccc1 (stereo not drawn)
- half-life: 23 min

Compound: CCOC(=O)c1ccc(-n2c(C)cc(-c3nnc4n3CCCCC4)c2C)cc1
- half-life: 2.7 min

Compound: CCc1cccc(NC(=O)C(Cc2ccccc2)NS(=O)(=O)c2cccs2)c1 (stereo not drawn)
- half-life: 1.44 min

Compound: COc1nccc(-c2nc(Nc3ccc(F)c(F)c3)c3ccccc3n2)c1OC
- half-life: 26 min

Compound: CC(C)Oc1cccc(-c2csc(N3CCC(C(N)=O)CC3)n2)c1
- half-life: 3.09 min

Compound: COC(=O)[C@@H]1C[C@H](OC(C)=O)C(=O)[C@H]2[C@@]1(C)CCC1C(=O)O[C@H](c3ccoc3)C[C@@]12C (stereo partly drawn)
- half-life: 9.8 min

Compound: Cc1noc(C)c1-c1cc(-c2ccc3c(c2)C(=O)NC3)cn2cncc12
- half-life: > 30 min

Compound: Cc1ccc(S(=O)(=O)Nc2ccccc2C(=O)Nc2cnc(-c3ccccc3)cn2)cc1
- half-life: 3.5 min

Compound: Cn1cc(Nc2cnccc2C(=O)O)c2cccnc21
- half-life: > 30 min

Compound: Cc1ccc(S(=O)(=O)Nc2cnccc2C(=O)Nc2nc(-c3ccc(Cl)c(Cl)c3)cs2)cc1
- half-life: > 30 min

Compound: Cc1ccc(S(=O)(=O)Nc2cnccc2C(=O)Nc2cccc3ccccc23)cc1
- half-life: 5.6 min

Compound: Cc1ccc(S(=O)(=O)Nc2cc(C(=O)Nc3nc(-c4ccccc4)cs3)ccc2Cl)cc1
- half-life: 15 min

Compound: Fc1cccc(-c2ccc(Nc3nc(-c4ccncc4)nc4ccccc34)cc2F)c1
- half-life: > 30 min

Compound: COc1cccc(CNc2ccc(S(=O)(=O)Nc3nccs3)cc2)c1OC
- half-life: 11 min

Compound: CCOC(=O)c1nn(-c2ccc(OC)cc2)c(=O)c2c(N)scc12
- half-life: 9.52 min

Compound: Cc1ccc(S(=O)(=O)Nc2ccc(F)cc2C(=O)Nc2nc(-c3ccccc3)cs2)cc1
- half-life: 3 min

Compound: Cc1ccc(S(=O)(=O)Nc2ccc(Br)cc2C(=O)Nc2nc(-c3ccccc3)cs2)cc1
- half-life: 8.9 min

Compound: O=[S+]([O-])(Nc1ccccc1)c1ccc(NCc2cccc(C(F)(F)F)c2Cl)cc1
- half-life: 13 min

Compound: FC1(F)CCN(c2nc(-c3ccncc3)nc3ccccc23)CC1
- half-life: 9.4 min

Compound: N#Cc1cc(NC(=O)Nc2nnc(-c3ccncc3)s2)ccc1-c1cn[nH]c1
- half-life: > 30 min

Compound: CNC(=O)c1ccccc1Nc1nc(Nc2ccc(N3CCOCC3)cc2OC)ncc1Cl
- half-life: > 30 min

Compound: CCCCCN(CCC12CC3CC(CC(C3)C1)C2)C(=O)NCCCc1ccncc1
- half-life: 3.7 min

Compound: CCOC(=O)c1ccc(N2C(=O)c3n[nH]c(-c4cccs4)c3C2c2ccc(Cl)cc2Cl)cc1 (stereo not drawn)
- half-life: 20.1 min

Compound: CC(C)c1ccccc1-c1ncc(F)c(NC(C)(C)c2ccc(-c3cccnc3)cc2)n1
- half-life: 2.3 min

Compound: CNc1nc(C#N)c(-c2cccc3ccccc23)o1
- half-life: 4.8 min

Compound: CN1CCN(CCCN2c3ccccc3Sc3ccc(S(=O)(=O)N(C)C)cc32)CC1
- half-life: 1.95 min

Compound: COc1ccc(-c2csc(N3CCC(C(N)=O)CC3)n2)cc1OC
- half-life: > 30 min

Compound: C=CC(=O)Nc1cccc(Oc2nc(Nc3ccc(N4CCN(C)CC4)cc3)ncc2Cl)c1
- half-life: 3.06 min
